The text below walks through data of article PMC10851415 (Biochemistry, 2024).

For experiment [1], the target named is T1, WT PAN endonuclease (Influenza A virus, UniProt C3W5S0, DEL52-63/E64G). It is filed as binding, influenza A/California/04/2009(H1N1).
Experiment [2] has as its target T2, I38T mutant PAN endonuclease (Influenza A virus, UniProt C3W5S0, DEL52-63/E64G/I38T). It is filed as binding, influenza A/California/04/2009(H1N1).
Experiment [3] deals with T3, E23K mutant PAN endonuclease (Influenza A virus, UniProt C3W5S0, DEL52-63/E23K/E64G). It is filed as binding, influenza A/California/04/2009(H1N1).
Experiment [4] concerns the target T1, WT PAN endonuclease. It counts as binding, influenza A/California/04/2009(H1N1). As to conditions: 200 µM.
In experiment [5] the target is T2, I38T mutant PAN endonuclease. It is filed as binding, influenza A/California/04/2009(H1N1). The source holds these as a separate data set.
Experiment [6] addresses T3, E23K mutant PAN endonuclease. It counts as binding, influenza A/California/04/2009(H1N1). The source holds these as a separate data set.
Experiment [7] concerns the target A36V mutant PAN endonuclease (Influenza A virus, UniProt C3W5S0, A36V/DEL52-63/E64G). It is filed as binding, influenza A/California/04/2009(H1N1). As to conditions: 200 µM.
Experiment [8] concerns I38T mutant. The following applies: cited from earlier work.
The test system of experiment [9] is WT and I38T mutants. As to conditions: cited from earlier work.

Take baloxavir acid [BXA]: the dissociation constant Kd (as a rule, the constant that tells how readily two partners part at equilibrium) in [1] is 0.343 ± 0.106 µM; in experiment [2], 9.3 ± 4.2 µM; in experiment [3] it was 26.1 ± 11.2 µM. The ΔTM in experiment [4] is 22.9 ±0.08 °C; in experiment [5] (200 µM) it was 14.9 ±0.04 °C; in experiment [6] (200 µM) it was 19.8 ±0.06 °C; in experiment [7] it was 21.7 ±0.11 °C. Moreover, the “difference in ΔTM compared to WT (lower)” value in experiment [5] was ~ 8 °C; in experiment [6], below 3 °C. Besides, the reduction in affinity in [8] is listed as 30- to 50 fold. The “ΔTM melting value between the WT and I38T mutants” value in [9] was 8-10 °C.
